In EP2812315B1, “PYRROLIC DERIVATIVES, PROCESSES FOR PREPARING THE SAME AND THEIR USES AS A DRUG” (Universite Joseph Fourier, priority 2012, dated 2013):
In brackets after ≈: the same amount, converted by molar mass.

Experiments:
Format in all cases: cell-based
[1] = test system: Staphylococcus epidermidis (ATCC 49461); experiment: Other MIC determination, microdilution method (CLSI M07-A9) with modifications; conditions: ATCC49461, 10^6 CFU/ml, 18h at 37 °C
Method: (§1) The microdilution method recommended by the Clinical and Laboratory Standard Institute [M07-A9, Vol.32, N°2] was used with the following modifications.
(§2) Bacterial inocula were prepared in Mueller Hinton broth (MH2, BioMérieux, Marcy L'Etoile, France). They were dispensed in 96 well microtiter plates (10^6 CFU/ml of final inoculum, 192 µL per well).
(§3) To avoid cross-contaminations in microtiter plates, one row was left blank between each strain tested. Microplates were incubated for 18h at 37 °C in ambient air. Then MICs were read visually and, in case of visual reading difficulties, confirmed using a spectrophotometer at a wavelength of 630 nm (BioTek® EL808 Absorbance Microplate Reader). MICs corresponded to the minimum pyrrolic compound concentrations that allowed complete visual growth inhibition of bacteria. Drug-free cultures served as growth controls.
(§4) We used four Staphylococcus aureus strains. Two reference strains were provided by the French reference center for Staphylococcus spp. (Lyon, France), including one methicillin-susceptible (MSSA 476) and one methicillin-resistant (MRSA 252) S. aureus strains. The two remaining S. aureus strains were purchased from the CRBIP (Centre de Ressources Biologiques de l'Institut Pasteur): a vancomycin-intermediate strain (ATCC 106414) and a S. aureus strain (SA-1199B) resistant to fluoroquinolones due to overexpression of the NorA multidrug efflux pump. Coagulase-negative Staphylococcus strains included three reference strains purchased from CRBIP: a methicillin-susceptible S. epidermidis strain (ATCC 12228), a methicillin-resistant S. epidermidis strain (ATCC 49461), and a methicillin-susceptible S. sciuri strain (ATCC 29061). We also used 37 clinical strains belonging to the following coagulase-negative Staphylococcus species: S. arlettae (two strains), S. capitis (nine strains), S. epidermidis (one strain), S. haemolyticus (six strains), S. hominis (eight strains), S. lugdunensis (one strain), S. massiliensis (one strain), S. pettenkoferi (two strains), S. saprophyticus (two strains), S. simulans (one strain), and S. warneri (four strains) . Identification of the clinical strains was first obtained using VITEK® 2 System (Biomérieux) and confirmed by amplification and sequencing of the tuf gene (Reference: Bergeron, M., O. Dauwalder, M. Gouy, A.-M. Freydiere, M. Bes, H. Meugnier, Y. Benito, J. Etienne, G. Lina, F. Vandenesch, and S. Boisset. Species identification of staphylococci by amplification and sequencing of the tuf gene compared to the gap gene and by matrix-assisted laser desorption ionization time-of-flight mass spectrometry, Eur. J. Clin. Microbial. Infect. Dis. 2011, 30, 343-354).
(§5) The activity of pyrrolic compounds 3c, 3e-3j and 3n was first tested against 12 Staphylococcus sp. strains, including 7 reference strains and five clinical strains. The MICs of these compounds against Staphylococcus aureus ATCC 106414 (VISA) and Staphylococcus epidermidis ATCC 12228 are in accordance with those described in Tables I and II.

[2] = test system: Staphylococcus haemolyticus (CHUG-Shae1); experiment: as above; conditions: 10^6 CFU/ml, 18h at 37 °C
Method: as §1, §2, §3, §4, §5

[3] = test system: Staphylococcus hominis(CHUG-Shom1); experiment: as above; conditions: 10^6 CFU/ml, 18h at 37 °C
Method: as §1, §2, §3, §4, §5

[4] = test system: Staphylococcus aureus (MRSA 252); experiment: as above; conditions: 10^6 CFU/ml, 18h at 37 °C
Method: as §1, §2, §3, §4, §5

[5] = test system: Staphylococcus epidermidis (ATCC 12228); experiment: as above; conditions: ATCC12228, 10^6 CFU/ml, 18h at 37 °C
Method: as §1, §2, §3, §4, §5

[6] = test system: Staphylococcus aureus (MSSA476); experiment: as above; conditions: 10^6 CFU/ml, 18h at 37 °C
Method: as §1, §2, §3, §4, §5

[7] = test system: Staphylococcus aureus (ATCC 106414, VISA); experiment: as above; conditions: 10^6 CFU/ml, 18h at 37 °C
Method: as §1, §2, §3, §4, §5

[8] = test system: Staphylococcus capitis (CHUG-Scapi1); experiment: as above; conditions: 10^6 CFU/ml, 18h at 37 °C
Method: as §1, §2, §3, §4, §5

[9] = test system: Staphylococcus pettenkoferi (CHUG-Spet1); experiment: as above; conditions: 10^6 CFU/ml, 18h at 37 °C
Method: as §1, §2, §3, §4, §5

[10] = test system: Staphylococcus sciuri (ATCC 29061); experiment: as above; conditions: Mammaliicoccus sciuri, ATCC29061, 10^6 CFU/ml, 18h at 37 °C
Method: as §1, §2, §3, §4, §5

[11] = test system: Staphylococcus warneri (CHUG-Swar1); experiment: as above; conditions: 10^6 CFU/ml, 18h at 37 °C
Method: as §1, §2, §3, §4, §5

[12] = test system: Escherichia coli ATCC 25922; experiment: MIC determination, microdilution method (CLSI M07-A8); conditions: ATCC25922; Escherichia coli ATCC 25922; 18 hours incubation; read-out: MIC
Method: (§6) The microdilution method recommended by the Clinical and Laboratory Standard Institute [M07-A8, Vol.29, N°2] was used. The activity of pyrrolic compounds was tested against 29 bacterial strains belonging to 17 different species and 12 different genera (Staphylococcus, Streptococcus, Enterococcus, […], Bacillus, Haetttophilus, Escherichia, Klebsiella, Enterobacter, Serratia, Pseudomonas, and Acinetobacter). Bacterial inocula were prepared in Mueller Hinton broth (MH2, bioMérieux, Marcy L'Etoile, France), supplemented with 10% sheep blood for fastidious species (i.e., Streptococcus pneumoniae and Haemophilus influenzae). They were dispensed in 96 well microtiter plates (5 x 10^5 CFU/mL of final inoculum). Pyrrolic compounds were added to the wells as to obtain two-fold serial concentrations (0.25-64 mg/L). Plates were incubated at 37°C, in 5% CO2 enriched atmosphere for fastidious species only. MICs were read after 18 hours incubation of cultures, and corresponded to the minimum pyrrolic compound concentration that allowed complete visual growth inhibition of bacteria. Drug-free cultures served as growth controls. Cultures receiving gentamicine, ciprofloxacine or cefotaxime served as positive controls.

[13] = test system: Enterobacter cloacae ATCC13047; experiment: as above; conditions: Enterobacter cloacae ATCC13047; 18 hours incubation; read-out: MIC
Method: as §6

[14] = test system: Pseudomonas aeruginosa CIP 5933; experiment: as above; conditions: CIP5933; Pseudomonas aeruginosa CIP 5933; 18 hours incubation; read-out: MIC
Method: as §6

[15] = test system: Klebsiella pneumoniae ATCC 35657; experiment: as above; conditions: ATCC35657; Klebsiella pneumoniae ATCC 35657; 18 hours incubation; read-out: MIC
Method: as §6

[16] = test system: Serratia marcescens CIP 103551; experiment: as above; conditions: CIP103551; Serratia marcescens CIP 103551; 18 hours incubation; read-out: MIC
Method: as §6

[17] = test system: Staphylococcus aureus ATCC 25923; experiment: as above; conditions: ATCC25923; Staphylococcus aureus ATCC 25923; 5 x 10^5 CFU/mL; 18 hours incubation; read-out: MIC
Method: as §6

| Structure (SMILES) | MIC [1] | MIC [2] | MIC [3] | MIC [4] | MIC [5] | MIC [6] | MIC [7] | MIC [8] | MIC [9] | MIC [10] | MIC [11] | MIC [12] | MIC [13] | MIC [14] | MIC [15] | MIC [16] | MIC [17] |
| --- | --- | --- | --- | --- | --- | --- | --- | --- | --- | --- | --- | --- | --- | --- | --- | --- | --- |
| CC(=O)c1c(C)[nH]c(C(c2ccc(Cl)cc2)c2[nH]c(C)c(C(C)=O)c2C)c1C [3c] | > 32 µg/mL | 16 µg/mL (≈ 40.3 µM) | > 32 µg/mL | 8 µg/mL (≈ 20.2 µM) | > 32 µg/mL | 4 µg/mL (≈ 10.1 µM) | 4 µg/mL (≈ 10.1 µM) | 8 µg/mL (≈ 20.2 µM) | > 32 µg/mL | > 32 µg/mL | 8 µg/mL (≈ 20.2 µM) | > 128 µg/mL | > 128 µg/mL | > 128 µg/mL | > 128 µg/mL | > 128 µg/mL | 4 µg/mL (≈ 10.1 µM) |
| CC(=O)c1c(C)[nH]c(C(c2cc3ccccc3o2)c2[nH]c(C)c(C(C)=O)c2C)c1C [3e] | > 32 µg/mL | > 32 µg/mL | > 32 µg/mL | 8 µg/mL (≈ 19.9 µM) | > 32 µg/mL | 4 µg/mL (≈ 9.94 µM) | 4 µg/mL (≈ 9.94 µM) | 8 µg/mL (≈ 19.9 µM) | > 32 µg/mL | > 32 µg/mL | 8 µg/mL (≈ 19.9 µM) | > 128 µg/mL | > 128 µg/mL | > 128 µg/mL | > 128 µg/mL | > 128 µg/mL | 4 µg/mL (≈ 9.94 µM) |
| CC(=O)c1c(C)[nH]c(C(c2cc3ccccc3s2)c2[nH]c(C)c(C(C)=O)c2C)c1C [3f] | > 32 µg/mL | > 32 µg/mL | > 32 µg/mL | 4 µg/mL (≈ 9.56 µM) | > 32 µg/mL | 4 µg/mL (≈ 9.56 µM) | 2 µg/mL (≈ 4.78 µM) | > 32 µg/mL | > 32 µg/mL | > 32 µg/mL | 4 µg/mL (≈ 9.56 µM) | > 128 µg/mL | > 128 µg/mL | > 128 µg/mL | > 128 µg/mL | > 128 µg/mL | 2 µg/mL (≈ 4.78 µM) |
| CC(=O)c1c(C)[nH]c(C(c2ccc(F)cc2)c2[nH]c(C)c(C(C)=O)c2C)c1C [3g] | > 32 µg/mL | 16 µg/mL (≈ 42.1 µM) | > 32 µg/mL | 8 µg/mL (≈ 21 µM) | > 32 µg/mL | 4 µg/mL (≈ 10.5 µM) | 4 µg/mL (≈ 10.5 µM) | 8 µg/mL (≈ 21 µM) | > 32 µg/mL | > 32 µg/mL | 8 µg/mL (≈ 21 µM) | > 32 µg/mL | > 32 µg/mL | > 32 µg/mL | > 32 µg/mL | > 32 µg/mL | 2 µg/mL (≈ 5.26 µM) |
| CC(=O)c1c(C)[nH]c(C(c2[nH]c(C)c(C(C)=O)c2C)c2cccc3ccccc23)c1C [3h] | > 32 µg/mL | 4 µg/mL (≈ 9.7 µM) | > 32 µg/mL | 2 µg/mL (≈ 4.85 µM) | > 32 µg/mL | 1 µg/mL (≈ 2.42 µM) | 1 µg/mL (≈ 2.42 µM) | 4 µg/mL (≈ 9.7 µM) | > 32 µg/mL | > 32 µg/mL | 2 µg/mL (≈ 4.85 µM) | > 128 µg/mL | > 128 µg/mL | > 128 µg/mL | > 128 µg/mL | > 128 µg/mL | 1 µg/mL (≈ 2.42 µM) |
| CC(=O)c1c(C)[nH]c(C(c2[nH]c(C)c(C(C)=O)c2C)c2csc3ccccc23)c1C [3i] | > 32 µg/mL | 4 µg/mL (≈ 9.56 µM) | > 32 µg/mL | 1 µg/mL (≈ 2.39 µM) | > 32 µg/mL | 0.5 µg/mL (≈ 1.19 µM) | 0.5 µg/mL (≈ 1.19 µM) | 1 µg/mL (≈ 2.39 µM) | > 32 µg/mL | > 32 µg/mL | 1 µg/mL (≈ 2.39 µM) | > 128 µg/mL | > 128 µg/mL | > 128 µg/mL | > 128 µg/mL | > 128 µg/mL | 1 µg/mL (≈ 2.39 µM) |
| COC(=O)c1cccc(C(c2[nH]c(C)c(C(C)=O)c2C)c2[nH]c(C)c(C(C)=O)c2C)c1 [3j, Methyl-3-[bis(4-acetyl-3,5-dimethyl-1H-pyrrol-2-yl)methyl]benzoate] | > 32 µg/mL | 16 µg/mL (≈ 38 µM) | > 32 µg/mL | 8 µg/mL (≈ 19 µM) | > 32 µg/mL | 4 µg/mL (≈ 9.51 µM) | 4 µg/mL (≈ 9.51 µM) | 16 µg/mL (≈ 38 µM) | > 32 µg/mL | > 32 µg/mL | 16 µg/mL (≈ 38 µM) | > 32 µg/mL | > 32 µg/mL | > 32 µg/mL | > 32 µg/mL | > 32 µg/mL | 4 µg/mL (≈ 9.51 µM) |
| CC(=O)c1c(C)[nH]c(C(c2[nH]c(C)c(C(C)=O)c2C)c2csc3ccc(Br)cc23)c1C [3n] | > 32 µg/mL | 1 µg/mL (≈ 2.01 µM) | > 32 µg/mL | 0.125 µg/mL (≈ 0.251 µM) | > 32 µg/mL | 0.125 µg/mL (≈ 0.251 µM) | 0.125 µg/mL (≈ 0.251 µM) | 0.125 µg/mL (≈ 0.251 µM) | > 32 µg/mL | > 32 µg/mL | 0.25 µg/mL (≈ 0.503 µM) |  |  |  |  |  |  |
